This note sets out measurements from PubChem BioAssay AID1259407 (Chemical Carcinogenesis Research Information System (CCRIS), 2018).

The series relates to CCRIS mutagenicity, Ames/micronucleus/aberration tests. Nature of the series: CCRIS mutagenicity studies.
The mark [1] stands for this setting: Test System: AMES SALMONELLA TYPHIMURIUM, Strain/Indicator: TA98, Metabolic Activation: NONE, Method: PREINCUBATION
Where [2] appears, read: Test System: AMES SALMONELLA TYPHIMURIUM, Strain/Indicator: TA100, Metabolic Activation: NONE, Method: PREINCUBATION
[3] abbreviates: Test System: AMES SALMONELLA TYPHIMURIUM, Strain/Indicator: TA98, Metabolic Activation: NONE, Method: STANDARD PLATE.
Where [4] appears, read: Test System: AMES SALMONELLA TYPHIMURIUM, Strain/Indicator: TA100, Metabolic Activation: NONE, Method: STANDARD PLATE.

The source made the active and inactive calls. No rule for the calls is given here.

For `C[As](O)O`, the mutagenic call by setting is: (End Point: In vitro micronucleus, Test System: Human peripheral lymphocytes, Metabolic Activation: None) “active; positive in all subjects only at highest dose”; (Test System: Mouse lymphoma, Strain/Indicator: L5178Y (TK+/TK-), Metabolic Activation: None, Method: Microwell) “active; positive”.

For `COS(=O)(=O)OC`, the mutagenic call by setting is: (End Point: IN VITRO CHROMOSOMAL ABERRATIONS, Test System: CHL CELLS, Metabolic Activation: NONE) “active; positive (structural changes)”; (End Point: IN VITRO CHROMOSOMAL ABERRATIONS, Test System: CHL CELLS, Metabolic Activation: RAT, LIVER, S-9, SODIUM PHENOBARBITAL AND 5,6-BENZOFLAVONE) “active; positive (structural changes)”; (End Point: In vitro micronucleus, Test System: Chinese Hamster Ovary (CHO-WBL) cells, Metabolic Activation: None) “active; positive (p<0.01)”; (Test System: AMES SALMONELLA TYPHIMURIUM, Strain/Indicator: TA98, Metabolic Activation: NONE) “active; positive”; under setting [1], “active; positive”; (Test System: AMES SALMONELLA TYPHIMURIUM, Strain/Indicator: TA98, Metabolic Activation: S-9) “active; positive”. Besides, the mutagenic call reads like this: (Test System: AMES SALMONELLA TYPHIMURIUM, Strain/Indicator: TA100, Metabolic Activation: NONE) “active; positive”; under setting [2], “active; positive”; (Test System: AMES SALMONELLA TYPHIMURIUM, Strain/Indicator: TA100, Metabolic Activation: S-9) “active; positive”; (Test System: AMES SALMONELLA TYPHIMURIUM, Strain/Indicator: TA1535, Metabolic Activation: NONE, Method: PREINCUBATION) “active; positive”; (Test System: AMES SALMONELLA TYPHIMURIUM, Strain/Indicator: TA1537, Metabolic Activation: NONE, Method: PREINCUBATION) “active; positive”; (Test System: AMES SALMONELLA TYPHIMURIUM, Strain/Indicator: TA1538, Metabolic Activation: NONE, Method: PREINCUBATION) “active; positive”. For the same compound, the mutagenic call reads like this: (Test System: CHINESE HAMSTER V-79, Strain/Indicator: V-79/6-THIOGUANINE, Metabolic Activation: NONE, Method: FLASK ASSAY) “inactive; negative”; (Test System: CHO/HGPRT, Strain/Indicator: CHO-K1-BH4, Metabolic Activation: NONE, Method: STANDARD PLATE) “active; positive”.

Turning to `O=[N+]([O-])c1ccc2cccc3c2c1CC3`, the mutagenic call under setting [3] was “active; positive”.

Consider `CC(=O)Nc1ccc2c(c1)[nH]c1ccccc12`, for which the mutagenic call reads like this: under setting [3], “active; positive”; (Test System: AMES SALMONELLA TYPHIMURIUM, Strain/Indicator: TA98, Metabolic Activation: RAT, LIVER, S-9, PHENOBARBITAL, Method: STANDARD PLATE) “active; positive”; under setting [4], “inactive; negative”; (Test System: AMES SALMONELLA TYPHIMURIUM, Strain/Indicator: TA100, Metabolic Activation: RAT, LIVER, S-9, PHENOBARBITAL, Method: STANDARD PLATE) “inactive; negative”; (Test System: AMES SALMONELLA TYPHIMURIUM, Strain/Indicator: TA1537, Metabolic Activation: NONE, Method: STANDARD PLATE) “inactive; negative”; (Test System: AMES SALMONELLA TYPHIMURIUM, Strain/Indicator: TA1538, Metabolic Activation: NONE, Method: STANDARD PLATE) “active; positive”. Also, the mutagenic call by setting is: (Test System: AMES SALMONELLA TYPHIMURIUM, Strain/Indicator: TA1538, Metabolic Activation: RAT, LIVER, S-9, PHENOBARBITAL, Method: STANDARD PLATE) “active; positive”; (Test System: AMES SALMONELLA TYPHIMURIUM, Strain/Indicator: TA1977, Metabolic Activation: NONE, Method: STANDARD PLATE) “inactive; negative”; (Test System: AMES SALMONELLA TYPHIMURIUM, Strain/Indicator: TA1977, Metabolic Activation: RAT, LIVER, S-9, PHENOBARBITAL, Method: STANDARD PLATE) “inactive; negative”.

For `O=[N+]([O-])c1ccc2ccc3c4c(cc5ccc1c2c53)CCCC4`, the mutagenic call under setting [3] was “active; positive” and the mutagenic call under setting [4] was “inactive; negative”.

`Cc1cccc(N=O)c1`: where the note is “Test System: AMES SALMONELLA TYPHIMURIUM, Strain/Indicator: TA98, Metabolic Activation: RAT, LIVER, S-9, AROCLOR 1254, Method: PREINCUBATION”, the mutagenic call is “inactive; negative”.

In the case of `CCN(Cc1cccc(S(=O)(=O)[O-])c1)c1ccc(C(=C2C=CC(=[N+](C)C)C=C2)c2ccc(N(CC)Cc3cccc(S(=O)(=O)O)c3)cc2)cc1`, the mutagenic call is “active; positive” (Test System: AMES SALMONELLA TYPHIMURIUM, Strain/Indicator: TA98, Metabolic Activation: HAMSTER, LIVER, S-9, AROCLOR 1254 (30%), Method: PREINCUBATION); “inactive; negative” under setting [1]; “active; positive” (Test System: AMES SALMONELLA TYPHIMURIUM, Strain/Indicator: TA98, Metabolic Activation: RAT, LIVER, S-9, AROCLOR 1254 (30%), Method: PREINCUBATION); “active; positive” (Test System: AMES SALMONELLA TYPHIMURIUM, Strain/Indicator: TA98, Metabolic Activation: RAT, LIVER, S-9, KC500 OR PHENOBARBITAL, Method: LIQUID SUSPENSION); “inactive; negative” (Test System: AMES SALMONELLA TYPHIMURIUM, Strain/Indicator: TA100, Metabolic Activation: HAMSTER, LIVER, S-9, AROCLOR 1254 (30%), Method: PREINCUBATION); “inactive; negative” under setting [2]. Moreover, the mutagenic call was “inactive; negative” (Test System: AMES SALMONELLA TYPHIMURIUM, Strain/Indicator: TA100, Metabolic Activation: RAT, LIVER, S-9, AROCLOR 1254 (30%), Method: PREINCUBATION); “active; positive” (Test System: Mouse lymphoma, Strain/Indicator: L5178Y (tk+/tk-), Metabolic Activation: None, Method: Suspension/plate); “inactive; negative” (Test System: Mouse lymphoma, Strain/Indicator: L5178Y (tk+/tk-), Metabolic Activation: Rat,Liver, S-9, Aroclor 1254, Method: Suspension/plate).

On to `CCCCCC(=O)O`, for which the mutagenic call is “inactive; negative” (Test System: AMES SALMONELLA TYPHIMURIUM, Strain/Indicator: TA97, Metabolic Activation: NONE, Method: PREINCUBATION); “inactive; negative” (Test System: AMES SALMONELLA TYPHIMURIUM, Strain/Indicator: TA97, Metabolic Activation: RAT, LIVER, S-9, AROCLOR 1254, Method: PREINCUBATION); “inactive; negative” (Test System: AMES SALMONELLA TYPHIMURIUM, Strain/Indicator: TA102, Metabolic Activation: NONE, Method: PREINCUBATION); “inactive; negative” (Test System: AMES SALMONELLA TYPHIMURIUM, Strain/Indicator: TA102, Metabolic Activation: RAT, LIVER, S-9, AROCLOR 1254, Method: PREINCUBATION).

Take `NC(=O)OC[C@H](O)[C@@H](O)[C@H](N)C(=O)N[C@H](C(=O)[O-])[C@H]1O[C@@H](n2cc(C(=O)[O-])c(=O)[nH]c2=O)[C@H](O)[C@@H]1O.[Zn+2]`: the mutagenic call under setting [4] is “active; positive” and the mutagenic call (Test System: AMES SALMONELLA TYPHIMURIUM, Strain/Indicator: TA100, Metabolic Activation: S-9 MIX, Method: STANDARD PLATE) was “active; positive”.

For the compound `Nc1c(Cl)cc(-c2cc(Cl)c(N)c(Cl)c2)cc1Cl`, the mutagenic call (Test System: UDS HUMAN CELLS, Strain/Indicator: THY INCORP (NON-S-PHASE), Metabolic Activation: RAT, LIVER, S-9, PHENOBARBITAL, Method: LIQUID SCINTILLATION COUNTING) is “active; positive”.

On to `CCCCN=NC(C)(C)OO`, for which the mutagenic call runs as follows: (Test System: AMES SALMONELLA TYPHIMURIUM, Strain/Indicator: TA1535, Metabolic Activation: NONE) “active; positive”; (Test System: E. COLI, Strain/Indicator: WP2 (HCR-), Metabolic Activation: NONE) “active; positive”.
